The test addresses T1, MrkH (MrkH-8×His) (Klebsiella pneumoniae, UniProt G3FT00).
T1 construct: full length, 234 aa, C-terminal 8×His tag, expressed from pET11a in E. coli BL21(DE3), about 28 kDa
Briefly: EMSA with […]-labelled mrkA promoter fragment. The test is classed as biochemical. To be noted: 200 µM c-di-GMP; pH 7.4; 30°C; 0-500 nM protein; allosteric activator of DNA binding; indirect read-out, no direct c-di-GMP binding measured. Background: In EMSA bound probe runs differently from free probe, usually more slowly.

T1 sequence (G3FT00 entry or part of it): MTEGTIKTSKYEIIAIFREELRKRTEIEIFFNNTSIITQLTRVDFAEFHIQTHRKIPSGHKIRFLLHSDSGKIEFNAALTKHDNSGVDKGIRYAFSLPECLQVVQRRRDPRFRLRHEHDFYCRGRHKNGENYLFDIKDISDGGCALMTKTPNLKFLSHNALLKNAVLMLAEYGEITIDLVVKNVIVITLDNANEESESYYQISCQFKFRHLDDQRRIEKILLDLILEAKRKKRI

`Nc1nc2c(ncn2[C@@H]2O[C@@H]3COP(=O)(O)O[C@H]4[C@@H](O)[C@H](n5cnc6c(=O)[nH]c(N)nc65)O[C@@H]4COP(=O)(O)O[C@H]3[C@H]2O)c(=O)[nH]1` [c-di-GMP]: the “EMSA with 32P-labelled mrkA promoter fragment” value is listed as “In the presence of c-di-GMP, the majority of the DNA was shifted”.

The values above are taken from PMC3161979, “MrkH, a Novel c-di-GMP-Dependent Transcriptional Activator, Controls Klebsiella pneumoniae Biofilm Formation by Regulating Type 3 Fimbriae Expression” (PLoS Pathogens, 2011).
